Results as given in ChEMBL document CHEMBL5442219.

Tests used:
Conditions in all cases: Compound concentration 10 µM
[1] = target: Delta-type opioid receptor (Homo sapiens) (UniProt P41143)
Description: PDSP Primary Binding target: OPRD1 - Compounds are tested at 10 uM concentration, plate are incubated at room temperature in the dark for 90 minutes. Reaction are stopped by vacuum filtration onto 0.3% polyethyleneimine soaked filter mats using Filtermate harvester. Scintilation cocktail is then melted onto microwave-dried filters on a hot plate and the radio activity is counted in Microbia counter.

[2] = target: T1, Muscarinic acetylcholine receptor M5 (Homo sapiens) (UniProt P08912)
T1 sequence (whole entry): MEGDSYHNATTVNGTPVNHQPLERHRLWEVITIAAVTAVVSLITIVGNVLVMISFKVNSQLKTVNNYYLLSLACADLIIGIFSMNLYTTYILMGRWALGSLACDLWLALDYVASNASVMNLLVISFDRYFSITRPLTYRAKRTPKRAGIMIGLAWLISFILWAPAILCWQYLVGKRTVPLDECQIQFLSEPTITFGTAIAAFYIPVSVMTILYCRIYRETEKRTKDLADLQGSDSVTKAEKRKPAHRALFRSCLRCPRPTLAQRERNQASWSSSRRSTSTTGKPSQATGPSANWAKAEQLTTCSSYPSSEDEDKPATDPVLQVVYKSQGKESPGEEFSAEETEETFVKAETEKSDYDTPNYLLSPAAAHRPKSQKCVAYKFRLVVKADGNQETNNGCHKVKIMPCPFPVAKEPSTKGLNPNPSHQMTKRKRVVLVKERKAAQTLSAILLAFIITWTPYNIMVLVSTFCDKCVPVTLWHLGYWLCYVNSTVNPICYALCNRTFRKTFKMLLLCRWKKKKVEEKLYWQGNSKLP
Description: PDSP Primary Binding target: CHRM5 - Compounds are tested at 10 uM concentration, plate are incubated at room temperature in the dark for 90 minutes. Reaction are stopped by vacuum filtration onto 0.3% polyethyleneimine soaked filter mats using Filtermate harvester. Scintilation cocktail is then melted onto microwave-dried filters on a hot plate and the radio activity is counted in Microbia counter.

[3] = target: Sigma intracellular receptor 2 (Homo sapiens) (UniProt Q5BJF2)
Sequence of Sigma intracellular receptor 2 (Homo sapiens) (Q5BJF2 whole entry): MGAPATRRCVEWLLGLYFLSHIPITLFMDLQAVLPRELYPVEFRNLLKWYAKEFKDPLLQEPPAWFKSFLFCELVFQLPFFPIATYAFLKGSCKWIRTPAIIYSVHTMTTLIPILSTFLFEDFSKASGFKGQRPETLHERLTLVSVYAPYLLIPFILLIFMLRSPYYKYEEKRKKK
Description: PDSP Primary Binding target: TMEM97 - Compounds are tested at 10 uM concentration, plate are incubated at room temperature in the dark for 90 minutes. Reaction are stopped by vacuum filtration onto 0.3% polyethyleneimine soaked filter mats using Filtermate harvester. Scintilation cocktail is then melted onto microwave-dried filters on a hot plate and the radio activity is counted in Microbia counter.

[4] = target: T2, D(4) dopamine receptor (Homo sapiens) (UniProt P21917)
T2 sequence (whole entry): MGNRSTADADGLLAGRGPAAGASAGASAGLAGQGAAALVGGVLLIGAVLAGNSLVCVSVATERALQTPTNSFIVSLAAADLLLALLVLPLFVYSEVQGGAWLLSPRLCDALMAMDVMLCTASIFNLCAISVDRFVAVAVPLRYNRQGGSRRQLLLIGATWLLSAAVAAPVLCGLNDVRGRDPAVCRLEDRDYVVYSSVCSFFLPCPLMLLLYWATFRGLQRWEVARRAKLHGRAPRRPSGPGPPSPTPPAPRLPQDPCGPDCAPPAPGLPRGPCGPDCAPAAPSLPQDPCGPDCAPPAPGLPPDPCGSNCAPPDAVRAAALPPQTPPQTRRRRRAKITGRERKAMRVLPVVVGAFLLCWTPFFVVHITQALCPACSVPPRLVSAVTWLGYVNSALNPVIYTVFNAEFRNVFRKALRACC
Description: PDSP Primary Binding target: DRD4 - Compounds are tested at 10 uM concentration, plate are incubated at room temperature in the dark for 90 minutes. Reaction are stopped by vacuum filtration onto 0.3% polyethyleneimine soaked filter mats using Filtermate harvester. Scintilation cocktail is then melted onto microwave-dried filters on a hot plate and the radio activity is counted in Microbia counter.

[5] = target: T3, Muscarinic acetylcholine receptor M1 (Homo sapiens) (UniProt P11229)
T3 sequence (whole entry): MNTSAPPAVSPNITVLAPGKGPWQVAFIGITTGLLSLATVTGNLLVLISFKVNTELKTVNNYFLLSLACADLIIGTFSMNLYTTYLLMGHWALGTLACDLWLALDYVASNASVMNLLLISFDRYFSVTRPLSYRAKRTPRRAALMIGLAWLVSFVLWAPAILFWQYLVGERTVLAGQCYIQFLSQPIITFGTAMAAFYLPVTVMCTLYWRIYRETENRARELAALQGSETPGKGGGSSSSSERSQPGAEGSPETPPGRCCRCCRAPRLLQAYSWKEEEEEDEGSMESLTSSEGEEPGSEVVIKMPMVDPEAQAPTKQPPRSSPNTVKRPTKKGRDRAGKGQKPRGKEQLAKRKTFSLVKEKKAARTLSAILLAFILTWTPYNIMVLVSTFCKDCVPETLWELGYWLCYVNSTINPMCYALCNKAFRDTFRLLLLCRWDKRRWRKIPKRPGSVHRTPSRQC
Description: PDSP Primary Binding target: CHRM1 - Compounds are tested at 10 uM concentration, plate are incubated at room temperature in the dark for 90 minutes. Reaction are stopped by vacuum filtration onto 0.3% polyethyleneimine soaked filter mats using Filtermate harvester. Scintilation cocktail is then melted onto microwave-dried filters on a hot plate and the radio activity is counted in Microbia counter.

[6] = target: Sigma non-opioid intracellular receptor 1 (Homo sapiens) (UniProt Q99720)
Sequence of Sigma non-opioid intracellular receptor 1 (Homo sapiens) (Q99720 whole entry): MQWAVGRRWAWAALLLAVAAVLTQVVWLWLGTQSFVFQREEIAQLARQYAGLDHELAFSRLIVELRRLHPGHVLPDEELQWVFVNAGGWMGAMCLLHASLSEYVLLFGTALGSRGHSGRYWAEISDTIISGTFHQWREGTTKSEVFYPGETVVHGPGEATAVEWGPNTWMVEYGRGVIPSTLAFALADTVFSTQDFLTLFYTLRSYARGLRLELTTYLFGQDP
Description: PDSP Primary Binding target: SIGMAR1 - Compounds are tested at 10 uM concentration, plate are incubated at room temperature in the dark for 90 minutes. Reaction are stopped by vacuum filtration onto 0.3% polyethyleneimine soaked filter mats using Filtermate harvester. Scintilation cocktail is then melted onto microwave-dried filters on a hot plate and the radio activity is counted in Microbia counter.

[7] = target: 5-hydroxytryptamine receptor 2B (Homo sapiens) (UniProt P41595)
Sequence of 5-hydroxytryptamine receptor 2B (Homo sapiens) (P41595 whole entry): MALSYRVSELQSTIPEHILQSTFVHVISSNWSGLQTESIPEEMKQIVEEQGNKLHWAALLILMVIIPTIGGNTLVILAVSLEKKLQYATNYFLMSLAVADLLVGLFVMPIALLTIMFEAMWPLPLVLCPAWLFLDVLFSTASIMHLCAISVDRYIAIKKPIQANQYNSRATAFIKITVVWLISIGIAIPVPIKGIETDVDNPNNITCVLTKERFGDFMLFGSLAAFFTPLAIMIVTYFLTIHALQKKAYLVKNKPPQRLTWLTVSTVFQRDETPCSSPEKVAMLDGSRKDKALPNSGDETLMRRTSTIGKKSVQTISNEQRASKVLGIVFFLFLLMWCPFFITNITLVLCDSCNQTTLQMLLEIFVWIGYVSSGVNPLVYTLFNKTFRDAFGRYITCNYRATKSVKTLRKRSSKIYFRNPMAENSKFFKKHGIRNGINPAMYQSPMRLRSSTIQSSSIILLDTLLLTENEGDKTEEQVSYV
Description: PDSP Primary Binding target: HTR2B - Compounds are tested at 10 uM concentration, plate are incubated at room temperature in the dark for 90 minutes. Reaction are stopped by vacuum filtration onto 0.3% polyethyleneimine soaked filter mats using Filtermate harvester. Scintilation cocktail is then melted onto microwave-dried filters on a hot plate and the radio activity is counted in Microbia counter.

[8] = target: T4, Alpha-1D adrenergic receptor (Homo sapiens) (UniProt P25100)
T4 sequence (whole entry): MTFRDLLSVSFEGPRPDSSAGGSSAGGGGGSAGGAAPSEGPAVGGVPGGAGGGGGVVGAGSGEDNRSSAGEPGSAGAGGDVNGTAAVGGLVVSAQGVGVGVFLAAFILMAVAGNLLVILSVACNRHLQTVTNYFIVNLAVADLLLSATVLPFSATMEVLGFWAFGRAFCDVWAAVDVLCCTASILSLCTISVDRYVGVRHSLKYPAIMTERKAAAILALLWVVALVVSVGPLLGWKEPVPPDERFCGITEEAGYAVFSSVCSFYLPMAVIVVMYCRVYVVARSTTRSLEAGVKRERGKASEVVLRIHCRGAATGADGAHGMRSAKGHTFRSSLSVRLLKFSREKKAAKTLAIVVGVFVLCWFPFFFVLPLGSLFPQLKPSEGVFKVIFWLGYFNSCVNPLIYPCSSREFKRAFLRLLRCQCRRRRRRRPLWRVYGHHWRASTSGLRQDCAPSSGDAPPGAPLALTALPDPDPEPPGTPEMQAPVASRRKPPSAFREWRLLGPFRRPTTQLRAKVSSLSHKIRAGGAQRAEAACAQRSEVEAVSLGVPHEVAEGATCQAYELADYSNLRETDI
Description: PDSP Primary Binding target: ADRA1D - Compounds are tested at 10 uM concentration, plate are incubated at room temperature in the dark for 90 minutes. Reaction are stopped by vacuum filtration onto 0.3% polyethyleneimine soaked filter mats using Filtermate harvester. Scintilation cocktail is then melted onto microwave-dried filters on a hot plate and the radio activity is counted in Microbia counter.

Sequence of Delta-type opioid receptor (Homo sapiens) (P41143 whole entry): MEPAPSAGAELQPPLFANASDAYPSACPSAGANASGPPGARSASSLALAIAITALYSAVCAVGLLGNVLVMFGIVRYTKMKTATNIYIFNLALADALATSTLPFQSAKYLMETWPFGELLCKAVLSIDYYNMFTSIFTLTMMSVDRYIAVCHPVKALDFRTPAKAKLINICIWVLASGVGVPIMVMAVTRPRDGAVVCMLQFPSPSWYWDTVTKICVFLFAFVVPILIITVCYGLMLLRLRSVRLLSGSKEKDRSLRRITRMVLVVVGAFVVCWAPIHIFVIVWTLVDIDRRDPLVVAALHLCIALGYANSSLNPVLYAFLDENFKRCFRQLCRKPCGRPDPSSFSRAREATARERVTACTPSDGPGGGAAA

SMILES | inhibition [1] [%] | inhibition [2] [%] | inhibition [3] [%] | inhibition [4] [%] | inhibition [5] [%] | inhibition [6] [%] | inhibition [7] [%] | inhibition [8] [%]
CC1CCN(CC[C@H]2CCCN2S(=O)(=O)c2cccc(O)c2)CC1 | 7.91 | 1.99 | 98.2 | 22.1 | -8.14 | -8.64 | 15.4 | –
Cc1nn(C)c(C)c1-c1cccc2c1CC[C@H](N(C)C)C2 | -4.68 | 69.2 | 79.1 | 24.5 | 29.3 | 102 | 84.9 | 2.35
CCc1nn(CCCN2CCN(c3cccc(Cl)c3)CC2)c(=O)n1CCOc1ccccc1 | 13 | 30.8 | 91.7 | 89.3 | – | 1.48 | 79.6 | 83.9
COC(=O)[C@H]1[C@H]2C[C@H]3c4[nH]c5ccccc5c4CCN3C[C@H]2CC[C@@H]1O | -0.55 | 4.29 | 22.8 | 40.2 | – | 63.2 | 94.3 | 58.7
COc1ccc2[nH]cc(CCNC(C)=O)c2c1 | -3.9 | – | 22.1 | 1.97 | – | 29.1 | 49.5 | -5.37
Cc1ccc2c(c1)c1c(n2CCc2ccc(C)nc2)CCN(C)C1 | 1.39 | -2.89 | 32.2 | 52.7 | – | 71.7 | 76.9 | 84.6
CC(C)(C(=O)O)c1ccc(C(O)CCCN2CCC(C(O)(c3ccccc3)c3ccccc3)CC2)cc1 (stereo not drawn) | – | – | 39.2 | 19.6 | – | 35.9 | 67.8 | -2.43
C[C@]1(C(=O)N(CCCC(=O)O)Cc2cccc(Cl)c2)CCN1C(=O)c1csc2ccccc12 | -1.78 | -2.06 | -7.28 | 4.3 | 5.11 | 32.5 | -7.25 | 3.17
Clc1cccc(Cl)c1NC1=NCCN1 | -4.61 | 0.71 | 66.3 | -2.87 | – | – | 93.8 | 66.8
CCc1cc2c(cc1CC)CC(NC[C@H](O)c1ccc(O)c3[nH]c(=O)ccc13)C2 | 1.1 | 37.8 | 96.5 | 24.2 | -6.02 | -7.63 | 92.6 | 75.3
O=c1ccn([C@@H]2O[C@H](COP(=O)(O)OP(=O)(O)OP(=O)(O)O)[C@@H](O)[C@H]2O)c(=O)[nH]1 | -0.41 | 7.7 | 34 | 53.3 | – | 35.3 | -4.24 | 11.6
CS(=O)(=O)NC[C@H]1CC[C@H](Nc2nc3c(s2)CCSc2ccccc2-3)CC1 | 4.54 | -4.92 | 81.4 | 44 | -1.96 | 45.3 | 83 | 2.44
CNC[C@H](O)c1ccc(O)c(O)c1 | 6.63 | – | 12.3 | 20.1 | – | – | 1.88 | 12.1
Brc1c(NC2=NCCN2)ccc2nccnc12 | 1.24 | – | 66.9 | 16.9 | – | – | 22.7 | 59
Cc1c(F)cccc1NC(=O)Nc1ccc(Cl)c(S(=O)(=O)[C@H]2CCCNC2)c1O | -5.71 | – | – | 6.5 | – | 9.71 | 44.3 | –
N#Cc1c(N)nc(SCc2csc(-c3ccc(Cl)cc3)n2)c(C#N)c1-c1ccc(OCCO)cc1 | – | – | 36.6 | 38.4 | -3.33 | 39 | 62.1 | 6.13
CCC(=O)NCC[C@@H]1CCc2ccc3c(c21)CCO3 | -5.97 | – | 47.4 | -3.2 | -3.08 | 89.6 | 72 | 10.9
CCCn1c(=O)c2nc(C34CC5CC(CC3C5)C4)[nH]c2n(CCC)c1=O | 11.3 | – | 39.6 | 1.06 | – | 32.7 | 43.5 | -8.33
O=C1N/C(=N/c2ccccc2F)S/C1=C\c1ccc(C(=O)O)cc1 | -1.84 | – | 33.9 | 79.2 | 17.1 | 17.9 | -3.68 | –
O=C(O)COc1cccc(CN(Cc2ccc(-n3cccn3)cc2)S(=O)(=O)c2cccnc2)c1 | 22.4 | -5.22 | 4.27 | 4.77 | 3.45 | 5.04 | 5.26 | –
CC(C)[C@H](CO)Nc1nc(Nc2cccc(Cl)c2)c2ncn(C(C)C)c2n1 | 5.89 | 21.1 | 63.1 | 62.7 | – | 14.4 | 96.2 | 13
CCc1nn2c(C)cc(C)nc2c1Cc1ccc(-c2nnc(C3CCNCC3)o2)cc1 | -1.19 | – | 80.3 | -4.88 | – | 52.4 | 9.86 | -0.67
Cc1ccccc1N1CCN(S(=O)(=O)C[C@]23CC[C@H](C[C@@H]2NC(=O)[C@@H](N)CCS(C)(=O)=O)C3(C)C)CC1 | 7.82 | – | 85 | -6.27 | – | 89.9 | 31.7 | 4.26
N#Cc1c[nH]c2c(C(=O)N3CCN(CCc4ccc(F)cc4)CC3)cccc12 | – | -9.78 | 68.2 | 81.9 | -2.04 | 87.6 | 57.1 | -4.02
Cc1cc(C)c(N)c(C#Cc2cccc(F)c2)n1 | -1.56 | – | 15.9 | -9.97 | – | 3.28 | 29.9 | 28.9
CN(C)S(=O)(=O)c1ccc(NC(=S)N2CCC(C(O)(c3ccccc3)c3ccccc3)CC2)cc1 | 10.2 | – | 95.2 | 8.69 | 8.52 | 45.3 | 23.4 | –
